Publication PMC4844702, “Selective inhibition of the kinase DYRK1A by targeting its folding process” (Nature Communications, 2016)
Like-named read-outs stand apart in the source and are kept apart here.

Tests used:
p-Ser97 of FLAG-DYRK1A = experiment: p-Ser97 signal of FLAG-DYRK1A in HEK293 cells treated with phosphatase inhibitors; assay type: cell-based; conditions: HEK293, with doxycycline 8 h
Source text: blotanalysisusing antibodies against p- Ser97 and FLAG. If Ser97 autophosphorylation were mediated by an intermolecular mechanism, then Ser97 of the kinase- dead K188R mutant would be phosphorylated when expressed in the presence of DD-FLAG-DYRK1A. However, in spite of the excess amount of DD- FLAG-DYRK1A, the phosphorylation of Ser97 in the kinase- dead mutant didnot increase compared toresults obtainedin the absence of DD- FLAG-DYRK1A.
Representative data from the triplicate experiments is shown.
(b) HEK293 cells harbouring the empty vector or the expression vector of DD -FLAG-DYRK1A with the bicistronic expression cassette of the kinase- dead FLAG- DYRK1A (K188R) and EGFP were incubated with Shield- 1 at the indicated concentrations for 16 h. After accumulation of DD- FLAG-DYRK1A, FLAG- DYRK1A (K188R) was expressed for 16 h in the presence of Shield- 1 and doxycycline. The kinase- dead FLAG- DYRK1A (K188R) didnot increase in the presence of DD- FLAG-DYRK1A, supporting the conclusion in (a).Representative data from the triplicate experiments is shown.
(c) p- Ser97 is susceptible to dephosphorylation in HEK293 cells. The HEK293 cells were treated with the indicated concentration of calyculin A, okadaic acid, and cantharidic acid in the presence of doxycycline for 8 h. The total cell lysates were subjected to immunoprecipitation using antibody against FLAG- tag. The immuno- precipitated FLAG- DYRK1A was detected using antibodies against p- Ser97 and FLAG- tag. […]
with cantharidic acid increased the p- Ser97 signal. In contrast, the treatment with calyculin A […]
which may indicate that calyculin A and okadaic acid inhibited dephosphorylation of other sites […]
phosphatases inhibited by these compounds have not been completely identified. Phosphatase(s) inhibited by cantharidic acid may play a role in dephosphorylation of p -Ser97 in the cells. […]
antibody- conjugated beads. […] Each protein was detected with the corresponding antibodies against p- Ser97 or FLAG. […]
(e) The band intensities in ( d) were quantified. […]

mature Drosophila DYRK2 = test system: mature Drosophila DYRK2; set-up: method as in PMID 17188038; conditions: cited from earlier work
[1] = target: GST-DYRK1A-TS Y319E mutant (Homo sapiens, UniProt Q13627, Y319E); experiment: biochemical; conditions: ATP 100 μM
Protocol: The cells were cultured with IPTG (final 1 mM) for 24 h at 6 °C, then lysed with GET buffer (20 mM HEPES-KOH, pH 8.0, 150 mM NaCl, 1 mM EDTA, 2 mM dithiothreitol, 10% glycerol, 0.5% Empigen BB, 0.5% Triton X-100). Clarified cell lysates were loaded onto a Strep-Tactin Sepharose column (IBA) and the bound proteins were then eluted with GET buffer containing 2.5 mM desthiobiotin (IBA) and 1 mg ml^−1 BSA. The eluates were subsequently applied to GST-Accept resin (Nacalai Tesque). The resin was washed extensively, first with GET buffer, then with AR buffer (5 mM MOPS, pH7.2, 2.5 mM β-glycerol-phosphate, 5 mM MgCl2, 1 mM EGTA, 0.4 mM EDTA, 2 mM tris(2-carboxyethyl)phosphine). […] We then added 5 μl of 2 mg ml^−1 BSA to the suspension (final concentration of 0.1 mg ml^−1), followed by incubation at 37 °C for 30 min. […] The bound proteins were eluted with SDS-urea buffer, then analysed with SDS–PAGE followed by western blot (Supplementary Fig. 14).
The band intensities were measured using the ChemiDoc MP Imaging System (Bio-Rad). In Fig. 6d,e, the relative activity of the phosphorylation was calculated from the ATP-dependent increase in the intensity of the p-Ser97 and p-Tyr signals by subtracting the band intensity in the absence of ATP from that in the presence of ATP.

DYRK1A [2] = target: T1, DYRK1A (Homo sapiens, UniProt Q13627); experiment: SPHINKS assay: TAU (Thr212) phosphorylation by induced DYRK1A in HEK293 cells, western blot; assay type: cell-based; set-up: expressed in transfected cells; host or cells: Flp-In/T-REx HEK293
Protocol: TAU was expressed in a fused form with the destabilization domain FKBP12 (DD), which causes degradation of DD fusion proteins in the absence of a small molecule, Shield-1 (ref. [26]).
To distinguish kinase inhibition at the transitional state from that after maturation, we set up two types of time courses. […] Following additional incubation with Shield-1 for 2 h, total cell lysates were harvested, then subjected to western blot.
Cells were then cultured 24 h later in the presence of 1 μg ml^−1 of doxycycline (Nacalai Tesque) for 16 h, then treated with 1 μM of Shield-1 (Clontech, Takara Bio) for 2 h. Small molecules from our chemical library were diluted in 1 ml of DMEM and 1% FBS, then administered into the cells at a final concentration of 10 μM (0.1% DMSO), as illustrated in Fig. 1a. Total cell lysates were prepared with SDS-urea buffer (50 mM Tris-HCl, pH 7.0, 1% SDS, 4 M urea, 10% glycerol, 20 mM dithiothreitol, 0.5 mg ml^−1 BSA), then analysed with SDS–polyacrylamide gel electrophoresis (SDS–PAGE) followed by western blot analysis using antibodies against phospho-TAU (pT212) (1/3,000) and total TAU (1/3,000) proteins (Supplementary Fig. 14).
Category Parameter Description
Assay Type of assay Cell-based
Measurement Detection of TAU phosphorylation mediated by
Key reagents Rabbit polyclonal antibody against phosphorylated
Mouse monoclonal antibody against TAU (TAU-5)
ProteoTuner Shield System (Clontech Laboratories)
pcDNA5/FRT/TO vector and Flp-In/T-REx293 cells
Assay protocol Described in the sections "Methods" and "Results"
Library Library size Approximately 200
Library composition Synthetic chemical compounds, including derivatives
Source Laboratory of Chemical Bioscience, Institute of
Biomaterials and Bioengineering, Tokyo Medical and
Screen Format 6-well plates (FALCON) coated with polyethylenimine
Screen Concentration(s) tested 10 µM (0.1% DMSO) in DMEM with 1%FBS
Reagent/ compound dispensing system Manual
Detection instrument and software Western blot using primary anti-phospho- TAU and […]
Chemiluminescence of HRP was detected by the […]

GST-DYRK1A-TS Y319E = GST-DYRK1A-TS Y319E (Homo sapiens, UniProt Q13627, Y319E); experiment: biochemical
Protocol: (§4) For the in vitro kinase assay, 2 μl (bed vol.) of the resin was incubated in a total volume of 25 μl of AR buffer containing 0.1 mg ml^−1 of BSA, 100 μM of ATP, 50 μM of DYRKtide peptide and the indicated concentrations of the small molecules, for 2 h at 37 °C. The consumption of ATP was measured with ADP-Glo Kinase Assay kit.

DYRK1A [3] = target: T1, DYRK1A; conditions: DYRKtide, 100 μM ATP; up to 32 μM compound
Protocol: For the in vitro kinase assay, 0.5 μl of the reaction mixture was incubated in a total volume of 25 μl of AR buffer containing 0.1 mg ml^−1 of BSA, 100 μM of ATP, 50 μM of DYRKtide peptide (Anaspec) and the indicated concentrations of the small molecules for 2 h at 37 °C. The consumption of ATP was measured with ADP-Glo Kinase Assay kit (Promega Corporation).

GST-DYRK1A-TS WT = GST-DYRK1A-TS WT (Homo sapiens, UniProt Q13627); experiment: biochemical
Protocol: as §4

human DYRK1B = target: T2, human DYRK1B (Homo sapiens, UniProt Q9Y463); experiment: RI-in vitro kinase assay with DYRKtide; assay type: biochemical
T2 construct: GST-tagged full-length human DYRK1B recombinant proteins; GST; purchased Life Technologies
T2 sequence (Q9Y463 whole entry): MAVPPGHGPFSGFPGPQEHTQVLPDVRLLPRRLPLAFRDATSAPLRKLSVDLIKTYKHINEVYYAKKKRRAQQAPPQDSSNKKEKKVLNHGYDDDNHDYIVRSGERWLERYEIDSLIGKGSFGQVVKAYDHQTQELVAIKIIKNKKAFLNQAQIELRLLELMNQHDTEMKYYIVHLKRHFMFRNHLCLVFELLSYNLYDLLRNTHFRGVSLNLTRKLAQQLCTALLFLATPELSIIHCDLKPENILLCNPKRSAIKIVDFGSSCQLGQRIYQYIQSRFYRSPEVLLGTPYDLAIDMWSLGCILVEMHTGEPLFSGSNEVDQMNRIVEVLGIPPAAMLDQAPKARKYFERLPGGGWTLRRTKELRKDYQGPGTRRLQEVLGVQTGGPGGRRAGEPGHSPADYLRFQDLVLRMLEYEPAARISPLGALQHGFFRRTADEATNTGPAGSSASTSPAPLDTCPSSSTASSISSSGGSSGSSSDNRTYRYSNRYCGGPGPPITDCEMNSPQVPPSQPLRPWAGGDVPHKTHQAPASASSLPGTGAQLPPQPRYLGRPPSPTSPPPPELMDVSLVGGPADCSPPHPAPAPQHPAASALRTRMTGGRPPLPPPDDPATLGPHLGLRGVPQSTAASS
Protocol: (§1) The RI-in vitro kinase assay was performed as described previously, with some modifications. […] GST-tagged full-length human DYRK1B recombinant proteins and His-tagged full-length human DYRK2 recombinant proteins were obtained from Life Technologies and Millipore, respectively. The kinase reaction was performed in a reaction mixture containing serially diluted inhibitors, 10 mM MOPS-KOH (pH 7.0), 10 mM magnesium acetate, 200 μM EDTA, 1 μM ATP, 0.1–0.4 μCi [γ-^32P]ATP, 5 μM DYRKtide and 0.1–1 μg recombinant kinase, for a final volume of 25 μl. The final concentration of DMSO was adjusted to 1%, regardless of the inhibitor concentration. The reaction mixture was incubated at 30 °C for 10 min and phosphoric acid (final 5%) was then added to stop the reaction. We then dispensed 25 μl of the reaction mixture onto P81, a phosphocellulose membrane (Whatman, GE Healthcare), and washed four times in 5% phosphoric acid. Cherenkov light from the incorporated ^32P was measured using a liquid scintillation counter. The kinase assay conditions, including the incubation period and the concentration of the kinases and substrates, were optimized to maintain linearity during the incubation. The net radioactivity was determined by subtracting the background count from the reaction mixture without kinase, and the data were expressed as a percentage of the control sample containing the solvent.

DYRK1A [4] = target: T1, DYRK1A; conditions: PURExpress
Protocol: The PURExpress kit (New England Biolabs) was employed. DYRK1A was expressed at 37 °C for 40 min in a 12.5-μl reaction mixture containing 30 ng of pET28a(+)-FLAG-DYRK1A. […] For immunoprecipitation, 100 μl of PBS containing 0.5% Empigen BB, 0.5 mg ml^−1 BSA and 5 mM EDTA was added into the reaction mixture, then incubated with anti-FLAG (M2) beads at 4 °C for 6 h. The samples were prepared with an SDS-urea buffer, then analysed with SDS–PAGE followed by western blot (Supplementary Fig. 14). The band intensities were measured using the LAS-3000 (Fujifilm) and Multi Gauge software (Fujifilm).

FLAG-DYRK1A = target: T3, FLAG-DYRK1A (Homo sapiens, UniProt Q13627); experiment: 2A peptide bicistronic FLAG-DYRK1A/HA-EGFP expression in HEK293 cells, western blot; assay type: cell-based
T3 construct: F2A peptide (remnant left on the upstream protein after ribosome skipping) (C); expressed in transfected cells; host or cells: HEK293 (Flp-In/T-REx), vector stably integrated
Protocol: After incubation for 5 h, total cell lysates were subjected to SDS–PAGE followed by western blot analysis using the corresponding antibodies against FLAG, HA and GAPDH. Representative data from the pentaplicate experiments are shown. […] Representative data from the triplicate experiments are shown. […] Total cell lysates were subjected to SDS–PAGE followed by western blot analysis. Representative data from the triplicate experiments are shown.

human DYRK2 = target: T4, human DYRK2 (Homo sapiens, UniProt Q92630); experiment: RI-in vitro kinase assay with DYRKtide; assay type: biochemical; conditions: DYRKtide substrate; Fig. 8b, n=4; read-out: IC50, kinase activity of recombinant DYRK2
T4 construct: His-tagged full-length human DYRK2 recombinant proteins; His; purchased Millipore
T4 sequence (Q92630 whole entry): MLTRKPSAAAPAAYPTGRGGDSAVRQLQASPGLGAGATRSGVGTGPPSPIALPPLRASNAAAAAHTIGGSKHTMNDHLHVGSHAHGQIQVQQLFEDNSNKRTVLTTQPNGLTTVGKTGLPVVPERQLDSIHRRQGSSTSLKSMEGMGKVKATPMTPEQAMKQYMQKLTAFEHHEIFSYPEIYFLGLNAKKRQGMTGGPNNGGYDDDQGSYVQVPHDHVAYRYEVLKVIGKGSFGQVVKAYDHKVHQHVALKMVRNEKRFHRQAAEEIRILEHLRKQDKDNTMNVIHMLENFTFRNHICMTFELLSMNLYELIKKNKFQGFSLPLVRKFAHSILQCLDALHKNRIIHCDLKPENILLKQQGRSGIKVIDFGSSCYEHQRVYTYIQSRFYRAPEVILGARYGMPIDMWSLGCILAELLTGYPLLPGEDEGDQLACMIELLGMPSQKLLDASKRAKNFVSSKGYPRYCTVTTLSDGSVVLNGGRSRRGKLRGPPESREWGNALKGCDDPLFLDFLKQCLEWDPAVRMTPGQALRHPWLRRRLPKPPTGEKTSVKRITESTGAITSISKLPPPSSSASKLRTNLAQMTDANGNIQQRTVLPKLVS

[5] = target: T5, 3xFLAG-DYRK1A / CDC37-nanoKAZ (Homo sapiens, UniProt Q13627); conditions: 24 h treatment; dose-dependent; 293T
Protocol: The wells were wash three times with ice-cold HENG buffer and then a luminescence assay was performed. […] The luminescence intensity was recorded at 0.1 s intervals for 10 s or 10 min. […] The relative amount of protein bound on the well was estimated from the absorbance.

[6] = target: T6, human DYRK1A kinase domain (Homo sapiens, UniProt Q13627); experiment: RI-in vitro kinase assay with DYRKtide; assay type: biochemical; conditions: for IC50: DYRKtide substrate
T6 construct: His-tagged human DYRK1A kinase domain (residues 127–485) was produced in E. coli; His; made in house; host or cells: E. coli
Protocol: as §1
The amount of incorporated ^32P was calculated from the standard line. The Km, Ki and Vmax values were calculated with Prism5 software (GraphPad Software) using the competitive inhibition model.

[7] = test system: transitional intermediate of Drosophila DYRK2; set-up: method as in PMID 17188038; conditions: cited from earlier work
DYRK1B = experiment: Rescue of Xenopus laevis embryos injected with DYRK1B mRNA; assay type: in vivo; conditions: 2.5 μM
Source text: (§2) Uninjected embryos were used as controls. Development of the embryos was allowed to proceed to stage 40 in the dark. Representative images are shown. […] The results are the means±s.e.m. of triplicate experiments (n=55). (c) RT–PCR analysis of the neural marker genes in the head regions of the embryos at stage 25. Each of the marker genes indicates a specific region: NCAM for the pan-neural region, Brain Factor-1 (BF-1) for the forebrain, Pax-6 and Rx-1 for the eye, Otx-2 for the fore-midbrain, Engrailed-2 (En-2) for the mid-hindbrain and Krox-20 for the hindbrain. Ornithine decarboxylase (ODC) is an internal control.
(§3) DYRK1A and DYRK1B mRNA, which were synthesized from linearized vectors with the mMessage mMachine Kit (Life Technologies), were injected into two dorsal blastomeres at the eight-cell-stage for RT–PCR analysis and observation of the embryo phenotypes. […] The head regions of the injected embryos were dissected at the neural stage (stage 25) and the total RNA was isolated using TRIzol (Life Technologies). cDNA synthesis was carried out using Moloney murine leukaemia virus reverse transcriptase (Life Technologies). The sequences of the primer pairs were as follows[51][52]: NCAM, 5′-[…]-3′ and 5′-[…]-3′; Brain factor 1 (BF-1), 5′-[…]-3′ and 5′-[…]-3′; Pax-6, 5′-[…]-3′ and 5′-[…]-3′; Rx1, 5′-[…]-3′ and 5′-[…]-3′; Otx-2, 5′-[…]-3′ and 5′-[…]-3′; En-2, 5′-[…]-3′ and 5′-[…]-3′′; Krox-20, 5′-[…]-3′ and 5′-[…]-3′; ornithine decarboxylase (ODC), 5′-[…]-3′ and 5′-[…]-3′. No randomization was used, and no blinding was done.

DYRK1A [8] = experiment: Rescue of Xenopus laevis embryos injected with DYRK1A mRNA; assay type: in vivo; conditions: 2.5 μM
Source text: as §2, §3

[9] = target: T5, 3xFLAG-DYRK1A / CDC37-nanoKAZ; set-up: expressed in transfected cells; host or cells: 293T cells stably expressing CDC37-nanoKAZ; method as in PMID 26234946; conditions: cited from earlier work

## C=C1[C@@H](O)[C@@H]2O[C@]3(CC[C@H](/C=C/[C@@H](C)[C@@H]4CC(C)=C[C@@]5(O[C@H](C[C@@](C)(O)C(=O)O)CC[C@H]5O)O4)O3)CC[C@H]2O[C@@H]1[C@@H](O)C[C@H](C)[C@H]1O[C@@]2(CCCCO2)CC[C@H]1C [okadaic acid]
p-Ser97 of FLAG-DYRK1A
  p-Ser97 signal in FLAG-DYRK1A: did not increase

## Brc1c(Br)c(Br)c2[nH]nnc2c1Br [TBB, 4,5,6,7-tetrabromo-1H-benzotriazole]
Mature Drosophila DYRK2
  inhibition of the mature kinase (Drosophila DYRK2): inhibited by both

## CC1(C(=O)O)C2CCC(O2)C1(C)C(=O)O (stereo not shown) [cantharidic acid]
p-Ser97 of FLAG-DYRK1A
  p-Ser97 signal in FLAG-DYRK1A: increased

## CCOc1cc(/C=C2\SC(=S)NC2=O)ccc1O [RD0392]
[1]; IC50, Ser97 autophosphorylation
  IC50: 0.205 µM
[1]; IC50, tyrosine phosphorylation
  IC50: 0.514 µM
DYRK1A [2]; Supplementary Fig. 2b
  TAU phosphorylation in HEK293 cells: suppresses
GST-DYRK1A-TS Y319E
  IC50: 0.813 µM
DYRK1A [3]
  substrate phosphorylation by DYRK1A produced in PURExpress: inhibited
GST-DYRK1A-TS WT
  IC50: 0.325 µM
Human DYRK1B
  IC50: 0.0533 µM
DYRK1A [4]
  signal from phosphorylated tyrosine in in vitro translation: no significant effects
DYRK1A [4]; compound added prior to transcription
  Ser97 autophosphorylation in in vitro translation: suppressed
FLAG-DYRK1A
  amount of FLAG-DYRK1A (destabilization): did not decrease
Human DYRK2
  IC50: 0.0456 µM
[5]
  interaction between DYRK1A and CDC37-nanoKAZ: weakened
[6]
  Ki: 0.132 µM
[6]; IC50, in vitro kinase activity of recombinant DYRK1A, Fig. 1f, n=4
  IC50: 0.0602 µM
[6]; IC50, kinase activity of recombinant DYRK1A, Supplementary Fig. 13d, n=3
  IC50: 0.0256 µM

## COC[C@@H]([C@H](O)[C@H](O)C(=O)NCC[C@H](C)c1nc(/C=C/C[C@@H]2O[C@]3(C[C@@H](O)[C@@H]2C)O[C@H]([C@H](C[C@H](O)[C@H](C)[C@H](O)[C@H](C)/C=C(C)/C(C)=C/C=C/C(C)=C\C#N)OC)[C@H](OP(=O)(O)O)C3(C)C)co1)N(C)C [calyculin A]
p-Ser97 of FLAG-DYRK1A
  p-Ser97 signal in FLAG-DYRK1A: did not increase

## CC(C)[C@H](CO)Nc1nc(Nc2cccc(Cl)c2)c2ncn(C(C)C)c2n1 [Purvalanol A]
[7]
  inhibition of the transitional intermediate of Drosophila DYRK2: inhibited
Mature Drosophila DYRK2
  inhibition of the mature kinase (Drosophila DYRK2): inhibited by both

## CCN1/C(=C/C(C)=O)Sc2ccc(OC(C)=O)cc21 [proINDY]
DYRK1B; Fig. 9b
  tadpoles developed normally when injected with DYRK1B mRNA: 89.1%
DYRK1B; RT-PCR, stage 25 head regions
  expression of neural marker genes in DYRK1B-overexpressing embryos: increased
DYRK1B; stage 40 tadpoles
  developmental malformation induced by DYRK1B: repressed
DYRK1A [8]; Fig. 9b
  rescue of embryos injected with DYRK1A mRNA (small eyes): almost completely rescued
DYRK1A [8]; RT-PCR, stage 25 head regions
  expression of neural marker genes in DYRK1A-overexpressing embryos: increased
DYRK1A [8]; stage 40 tadpoles
  developmental malformation induced by DYRK1A: repressed

## CCN1/C(=C/C(C)=O)Sc2ccc(O)cc21 [INDY]
DYRK1A [2]; 10 μM, compound added after accumulation of mature DYRK1A, HEK293
  TAU phosphorylation in Tc 2: suppressed
DYRK1A [2]; 10 μM, compound added before doxycycline induction, HEK293
  TAU phosphorylation in Tc 1: suppressed
Human DYRK2
  IC50: 0.0277 µM
[9]
  interaction between DYRK1A and CDC37-nanoKAZ: weakened
